What was measured:
Type in all cases: cell-based
Pyricularia oryzae = test: microbe, parasite or virus in culture; settings: 168 h, read-out: control
Botrytis cinerea = Botrytis cinerea (Gray Mold) radial growth on potato dextrose agar; settings: 300 ppm; radial growth after seven days compared to untreated control
Fusarium culmorum = Fusarium culmorum (Foot Rot of Cereals) radial growth on potato dextrose agar; settings: 300 ppm; radial growth after seven days compared to untreated control
Procedure: Example 6: Fusarium culmorum (Foot Rot of Cereals)
Compounds were dissolved in 0.3% dimethyl sulfoxide and then added to potato dextrose agar medium just prior to dispensing it into petri dishes. 5 mL medium with the compound in the desired concentration was dispensed into 60 mm sterile petri-plates. After solidification each plate was seeded with a 5 mm size mycelial disc taken from the periphery of an actively growing virulent culture plate. Plates were incubated in growth chambers at 25° C. temperature and 60% relative humidity for seven days and then the radial growth was measured and compared to that of the untreated control.

Alternaria solani = Alternaria solani (Early Blight of Tomato/Potato) radial growth on potato dextrose agar; settings: 168 h, radial growth after seven days compared to untreated control

Compound | inhibition of growth at 300 ppm (Pyricularia oryzae) [%] | control (Botrytis cinerea) [%] | control (Fusarium culmorum) [%] | inhibition of growth at 300 ppm (Alternaria solani) [%]
O=C(COc1ccccc1F)c1ccc(-c2noc(C(F)(F)F)n2)cn1 [Compound 114, 2-(2-fluorophenoxy)-1-(5-(5-(trifluoromethyl)-1,2,4-oxadiazol-3-yl)pyridin-2-yl)ethan-1-one] | ≥ 70 | ≥ 70 | – | –
O=C(CNc1ccc(Cl)c(C(F)(F)F)c1)c1ccc(-c2noc(C(F)(F)F)n2)cc1 [Compound 140, 2-((4-chloro-3-(trifluoromethyl)phenyl)amino)-1-(4-(5-(trifluoromethyl)-1,2,4-oxadiazol-3-yl)phenyl)ethan-1-one] | – | – | ≥ 70 | ≥ 70

— patent publication US12677832B2, “Oxadiazole compounds for controlling or preventing phytopathogenic fungi” (PI INDUSTRIES LTD., priority 2019, dated 2026)
